Earlier results as cited in US9205144B2, “Identification of conserved peptide blocks in homologous polypeptides” (Dana-Farber Cancer Institute, Inc., priority 2011, dated 2015).

What was measured:
HLA-03 = HLA-03 (Homo sapiens, UniProt P04439)
HLA-03, sequence (P04439 25-365): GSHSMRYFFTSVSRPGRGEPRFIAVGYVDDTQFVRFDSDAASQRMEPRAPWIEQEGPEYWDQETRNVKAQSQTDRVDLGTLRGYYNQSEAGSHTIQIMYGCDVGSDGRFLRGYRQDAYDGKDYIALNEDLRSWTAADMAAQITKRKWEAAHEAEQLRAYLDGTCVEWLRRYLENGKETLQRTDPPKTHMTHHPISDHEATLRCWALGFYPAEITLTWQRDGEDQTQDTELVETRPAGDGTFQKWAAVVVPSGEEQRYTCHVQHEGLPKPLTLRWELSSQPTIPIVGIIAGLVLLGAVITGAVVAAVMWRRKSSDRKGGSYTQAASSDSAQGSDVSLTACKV
HLA-03, sequence (P61769 21-119, further chain): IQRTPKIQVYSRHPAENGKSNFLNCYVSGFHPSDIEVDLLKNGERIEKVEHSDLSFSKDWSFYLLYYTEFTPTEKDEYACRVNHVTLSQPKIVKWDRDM

KTFDTEYQK (listed as Dengue virus) [Peptide 1]
known ligand: ligand for HLA-03 (HLA-03) | ligand for HLA-31 (HLA-31) | ligand for HLA-11 (HLA-11)
